System: rats
Test: FCA (Freunds Complete Adjuvant) model of inflammatory hypersensitivity to pain (weight bearing)
Assay type: in vivo, rat
Protocol: • Naïve weight bearing readings were taken. The hypersensitivity to pain was measured using the Rat incapacitance tester (Linton instruments). This instrument is serviced once a year and should be regularly calibrated • All rats then received an intraplantar injection of 100 ul of FCA (Freund's complete adjuvant) into the left hind paw. The FCA was sonicated for 15 minutes prior to use. • Approximately 23 hrs after administration of the FCA, pre-dose weight bearing readings were taken. All animals were then ranked and randomised for dosing according to their FCA window (predose difference in grams−naïve difference in grams). […] Celebrex 10 mg/kg p.o. (positive control) as appropriate according to ranking and randomisation. • Animals were assessed in the weight bearing apparatus 1 hour post dose. • The study was blind and randomised by FCA window using the Latin square method. • % reversals were calculated by using the naïve, pre-dose and post dose values as follows: % Reversal=[(Pre-dose−Post-dose)/(Pre-dose−Naïve)]×100 • Graphs and ED50 were calculated where appropriate using Prism4. • Statistical analysis was carried out using ANOVA followed by calculating the least square means using the statistical package Statistica 6.1 • From the dose response curves the ED20 was determined for the combination study • Naïve weight bearing readings were taken. The hypersensitivity to pain was measured using the Rat incapacitance tester (Linton instruments). This instrument is serviced once a year and should be regularly calibrated • All rats then received an intraplantar injection of 100 ul of FCA (Freund's complete adjuvant) into the left hind paw. The FCA was sonicated for 15 minutes prior to use. • Approximately 23 hrs after administration of the FCA, pre-dose weight bearing readings were taken. All animals were then ranked and randomised for dosing according to their FCA window (predose difference in grams−naïve difference in grams). […] See table 5 for details of the groups • Animals were assessed in the weight bearing apparatus 1 hour post dose. • The study was blind and randomised by FCA window using the Latin square method. • % reversals were calculated by using the naïve, pre-dose and post dose values as follows: % Reversal=[(Pre-dose−Post-dose)/(Pre-dose−Naïve)]×100 • Statistical analysis was carried out using ANOVA followed by calculating the least square means using the statistical package Statistica 6.1 • ED50 and ED20 values and graphs were calculated using prism5 • Naïve weight bearing readings were taken. The hypersensitivity to pain was measured using the Rat incapacitance tester (Linton instruments). This instrument is serviced once a year and should be regularly calibrated • All rats then received an intraplantar injection of 100 ul of FCA (Freund's complete adjuvant) into the left hind paw. The FCA was sonicated for 15 minutes prior to use. • Approximately 23 hrs after administration of the FCA, pre-dose weight bearing readings were taken. All animals were then ranked and randomised for dosing according to their FCA window (predose difference in grams—naïve difference in grams). Rats with FCA window less than 30 g were excluded from the study. • Animals were then dosed with the following in a fixed dose ratio of 1.25:1 according to ranking and randomisation. (Table 6) […] Graphs and ED50 were calculated where appropriate using Prism5 • Statistical analysis was carried out using ANOVA followed by calculating the least square means using the statistical package Statistica 6.1

Nc1nnc(-c2cccc(Cl)c2Cl)c(N)n1 [ENa7, 3,5-diamino-6-(2,3-dichlorophenyl)-1,2,4-triazine, reference compound]
ED50 (Rattus norvegicus, po, compound alone, 0.1-3.0 mg/kg p.o. as printed, 1 hour post dose, range in brackets as printed, read-out: ED50, reversal of the FCA induced hypersensitivity): 0.35 mg/kg | reversal of the FCA induced hypersensitivity (compound alone, 0.1-3.0 mg/kg, 1 hour post dose): dose related reversal | effect on the FCA induced hypersensitivity (each compound alone at its ED20 dose (ENa7 0.1 mg/kg p.o.; ENK6 0.08 mg/kg s.c.)): no significant effect

Source: patent US20100105688A1, “PHARMACEUTICAL COMPOSITIONS COMPRISING 3,5-DIAMINO-6-(2,3-DICHLOPHENYL)-1,2,4-TRIAZINE OR R(-)-2,4-DIAMINO-5-(2,3-DICHLOROPHENYL)-6-FLUOROMETHYL PYRIMIDINE AND AN NK1” (GLAXO GROUP LIMITED, priority 2007, published 2010)
